# Measured values as given in patent US20210292330A1, “PYRROLIDINE-FUSED HETEROCYCLES” (Erasca, Inc., priority 2020, published 2021).
# Biological target: T1, KRAS 4B G12C protein (Homo sapiens, UniProt P01116, G12C)
# T1 construct: This protein contained 188 amino acids in total, including an N-terminal 6-Histidine tag; made in house; host or cells: E. coli BL21
# Test: In vitro covalent adduct formation (CAF) assay by LC-MS
# Format: binding
# Conditions: compound 10 μM, protein 5 μM, 22° C., percentage of protein bound by the compound
# Outline: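 Percent of protein covalently modified was quantified from intact-mass LC-MS ratios of free versus adducted protein, adducts within 1 Da of expected mass. Reactions: 10 μM compound, 5 μM His-TEV-KRAS 4B G12C (1-169) in TBS pH 7.4, 4% DMSO, 22° C., one hour, run in duplicate.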
structure (smiles),measurement,value
C=CC(=O)N1CCN(c2nc(OC[C@@H]3CCCN3C)nc3c2CN(Cc2nc(OC)ccc2Cl)C3)[C@@H](C)C1 [1-65],CAF (10 minutes/60 minutes) at 10 micromolar: 10 minutes,0%
same,CAF (10 minutes/60 minutes) at 10 micromolar: 60 minutes,2%
C=CC(=O)N1CCN(c2nc(OC[C@@H]3CCCN3C)nc3c2CN(Cc2cc(O)ccc2F)C3)C[C@@H]1CC#N [1-46],CAF (10 minutes/60 minutes) at 10 micromolar: 10 minutes,98%
same,CAF (10 minutes/60 minutes) at 10 micromolar: 60 minutes,99%
C=CC(=O)N1CCN(c2nc(OC[C@@H]3CCCN3C)nc3c2CN(Cc2c(F)cccc2OC(F)F)C3)C[C@@H]1CC#N [1-58],CAF (10 minutes/60 minutes) at 10 micromolar: 10 minutes,96%
same,CAF (10 minutes/60 minutes) at 10 micromolar: 60 minutes,98%
C=CC(=O)N1CCN(c2nc(OC[C@@H]3CCCN3C)nc3c2CN(C2CCc4ccccc42)C3)C[C@@H]1CCC(N)=O (stereo partly drawn) [1-231],CAF (10 minutes/60 minutes) at 10 micromolar: 10 minutes,0%
same,CAF (10 minutes/60 minutes) at 10 micromolar: 60 minutes,1%
C=C(F)C(=O)N1CCN(c2nc(OC[C@@H]3CCCN3C)nc3c2CN(C2CCc4ccccc42)C3)C[C@@H]1CC#N (stereo partly drawn) [1-139],CAF (10 minutes/60 minutes) at 10 micromolar: 10 minutes,0%
same,CAF (10 minutes/60 minutes) at 10 micromolar: 60 minutes,5%
C=CC(=O)N1CCN(c2nc(OC[C@@H]3CCCN3C)nc3c2CN(C2CC(C)(C)c4ccc(O)cc42)C3)C[C@@H]1CC#N (stereo partly drawn) [1-194],CAF (10 minutes/60 minutes) at 10 micromolar: 10 minutes,32%/ 32%
same,CAF (10 minutes/60 minutes) at 10 micromolar: 60 minutes,32%/ 32%
C=CC(=O)N1CCN(c2nc(OC[C@@H]3CCCN3C)nc3c2CN(Cc2c(F)cccc2OC)C3)C[C@@H]1CC#N [1-36],CAF (10 minutes/60 minutes) at 10 micromolar: 10 minutes,91%
same,CAF (10 minutes/60 minutes) at 10 micromolar: 60 minutes,97%
C=CC(=O)N1CCN(c2nc(OC[C@@H]3CCCN3C)nc3c2CN(Cc2c(Cl)cccc2OC)C3)C[C@@H]1C(O)C(F)(F)F (stereo partly drawn) [1-98],CAF (10 minutes/60 minutes) at 10 micromolar: 10 minutes,0%
same,CAF (10 minutes/60 minutes) at 10 micromolar: 60 minutes,1%
C=CC(=O)N1CCN(c2nc(OC[C@@H]3CCCN3C)nc3c2CN(Cc2cc(O)ccc2C(C)C)C3)C[C@@H]1CC#N [1-185],CAF (10 minutes/60 minutes) at 10 micromolar: 10 minutes,96%
same,CAF (10 minutes/60 minutes) at 10 micromolar: 60 minutes,97%
C=CC(=O)N1CCN(c2nc(OC[C@@H]3CCCN3C)nc3c2CN(C(C)c2ccccc2Cl)C3)C[C@@H]1CC#N (stereo partly drawn) [1-120],CAF (10 minutes/60 minutes) at 10 micromolar: 10 minutes,57%
same,CAF (10 minutes/60 minutes) at 10 micromolar: 60 minutes,74%
C=CC(=O)N1CCN(c2nc(OCCN3CCOCC3)nc3c2CN(Cc2cc(OC)ccc2C)C3)[C@@H](C)C1 [1-110],CAF (10 minutes/60 minutes) at 10 micromolar: 10 minutes,0%/ 0%
same,CAF (10 minutes/60 minutes) at 10 micromolar: 60 minutes,0%/ 0%
C=CC(=O)N1C2COCC1CN(c1nc(OC[C@@H]3CCCN3C)nc3c1CN(Cc1cc(O)ccc1Cl)C3)C2 [1-124],CAF (10 minutes/60 minutes) at 10 micromolar: 10 minutes,21%
same,CAF (10 minutes/60 minutes) at 10 micromolar: 60 minutes,67%
C=CC(=O)N1CCN(c2nc(OC[C@@H]3CCCN3C)nc3c2CN(Cc2ccccc2CCC)C3)C[C@@H]1CC#N [1-206],CAF (10 minutes/60 minutes) at 10 micromolar: 10 minutes,86%
same,CAF (10 minutes/60 minutes) at 10 micromolar: 60 minutes,94%
C=CC(=O)N1CCN(c2nc(OC[C@@H]3CCCN3C)nc3c2CN(Cc2c(Cl)cccc2OC(F)F)C3)[C@H](C)C1 [1-91],CAF (10 minutes/60 minutes) at 10 micromolar: 10 minutes,0%/ 0%
same,CAF (10 minutes/60 minutes) at 10 micromolar: 60 minutes,0%/ 0%
C=CC(=O)N1[C@H](C)CN(c2nc(OC[C@@H]3CCCN3C)nc3c2CN(Cc2c(Cl)ccc(O)c2C)C3)C[C@H]1C [1-341],CAF (10 minutes/60 minutes) at 10 micromolar: 10 minutes,0%/ 0%
same,CAF (10 minutes/60 minutes) at 10 micromolar: 60 minutes,0%/ 0%
C=CC(=O)N1CCN(c2nc(OC[C@@H]3CCCN3C)nc3c2CN(Cc2cc(O)ccc2Cl)C3)[C@@H](C)C1 [1-43],CAF (10 minutes/60 minutes) at 10 micromolar: 10 minutes,97%
same,CAF (10 minutes/60 minutes) at 10 micromolar: 60 minutes,98%
C=CC(=O)N1CCN(c2nc(OC[C@@H]3CCCN3C)nc3c2CN(Cc2ccccc2C(C)(C)C)C3)C[C@@H]1CC#N [1-187],CAF (10 minutes/60 minutes) at 10 micromolar: 10 minutes,94%
same,CAF (10 minutes/60 minutes) at 10 micromolar: 60 minutes,95%
C=CC(=O)N1CCN(c2nc(Oc3cccc4c3CCN(C)C4)nc3c2CN(C2CCc4ccccc42)C3)C[C@@H]1CC#N (stereo partly drawn) [1-171],CAF (10 minutes/60 minutes) at 10 micromolar: 10 minutes,9%
same,CAF (10 minutes/60 minutes) at 10 micromolar: 60 minutes,29%
C=CC(=O)N1CCN(c2nc(OC[C@@H]3CCCN3C)nc3c2CN(C2CCc4ccc(O)c(Cl)c42)C3)C[C@@H]1CC#N (stereo partly drawn) [1-342],CAF (10 minutes/60 minutes) at 10 micromolar: 10 minutes,80%
same,CAF (10 minutes/60 minutes) at 10 micromolar: 60 minutes,87%
C=CC(=O)N1CCN(c2nc(OC[C@@H]3CCCN3C)nc3c2CN(C2CCc4ccccc42)C3)C[C@@H]1Cn1ccnc1 (stereo partly drawn) [1-219],CAF (10 minutes/60 minutes) at 10 micromolar: 10 minutes,0%
same,CAF (10 minutes/60 minutes) at 10 micromolar: 60 minutes,1%
C=CC(=O)N1CCN(c2nc(O)nc3c2CN(C2CCc4ccccc42)C3)C[C@@H]1CC#N (stereo partly drawn) [1-135],CAF (10 minutes/60 minutes) at 10 micromolar: 10 minutes,0%
same,CAF (10 minutes/60 minutes) at 10 micromolar: 60 minutes,7%
